Experimental data published in US20190376971A1, “Compositions and Methods for the Assessment of Drug Target Occupancy for Bruton's Tyrosine Kinase” (Acerta Pharma B.V., priority 2017, published 2019).

Molecular target: T1, BTK (Canis lupus familiaris, UniProt A0A8I3P3Z9)
T1 construct: PBMCs are isolated from the blood of dogs by Ficoll Paque procedure; from tissue; host or cells: CD21+ B cells purified from PBMCs of dog blood (dogs with spontaneous lymphoma, dosed orally)
Experiment: BTK target occupancy in canine peripheral CD21+ B cells after oral dosing
Type: in vivo, dog
Details: day 7 prior to repeat dose, 1 day after preceding dose; 2.5 mg/kg once daily, peroral
Method: The following method may be used for the ELISA BTK target occupancy assay. Other variations of this assay are known to those of skill in the art and may also be used. • 1. Coat a 96-well plate (Optiplate, Perkin Elmer, catalog no. 6005290) with 125 ng/well anti-BTK (BD Biosciences catalog no. 611117) in 100 μL PBS, overnight at 4° C. • 2. Wash 2×200 μL/well PBS-Tween 0.05% (PBST). • 3. Block with 245 μL/well PBST+3% bovine serum albumin (BSA), for 2 to 3 hours at room temperature while shaking. • 4. During blocking, incubate samples with acalabrutinib and probe in Eppendorf tubes: • a. Centrifuge cells 5 minutes at 5000 rpm and 4° C. in Eppendorf centrifuge. • b. Remove supernatant, dilute BTK protein or resuspend cell pellet in cold (2-8° C.) lysis buffer (see below). For amount of cells/μL, see detailed protocols for Ramos (Example 6.2), canine B cells (Example 7.2) and human PBMCs (Example 8.2). • c. Incubate on ice for 30 minutes while shaking. Vortex every 10 minutes. • d. Centrifuge for 10 minutes at 14000 rpm and 4° C. in Eppendorf centrifuge. • e. Transfer supernatant to new tube. • f. […] Wash wells 2×245 μL/well PBST. • 6. Add (in duplicate) 100 μL of each sample (with and without Formula (3)) to the wells. • 7. Incubate for 2 hours at room temperature while shaking. • 8. Wash 4×PBST, 200 μL/well. • 9. […]

T1 sequence (A0A8I3P3Z9 1-664): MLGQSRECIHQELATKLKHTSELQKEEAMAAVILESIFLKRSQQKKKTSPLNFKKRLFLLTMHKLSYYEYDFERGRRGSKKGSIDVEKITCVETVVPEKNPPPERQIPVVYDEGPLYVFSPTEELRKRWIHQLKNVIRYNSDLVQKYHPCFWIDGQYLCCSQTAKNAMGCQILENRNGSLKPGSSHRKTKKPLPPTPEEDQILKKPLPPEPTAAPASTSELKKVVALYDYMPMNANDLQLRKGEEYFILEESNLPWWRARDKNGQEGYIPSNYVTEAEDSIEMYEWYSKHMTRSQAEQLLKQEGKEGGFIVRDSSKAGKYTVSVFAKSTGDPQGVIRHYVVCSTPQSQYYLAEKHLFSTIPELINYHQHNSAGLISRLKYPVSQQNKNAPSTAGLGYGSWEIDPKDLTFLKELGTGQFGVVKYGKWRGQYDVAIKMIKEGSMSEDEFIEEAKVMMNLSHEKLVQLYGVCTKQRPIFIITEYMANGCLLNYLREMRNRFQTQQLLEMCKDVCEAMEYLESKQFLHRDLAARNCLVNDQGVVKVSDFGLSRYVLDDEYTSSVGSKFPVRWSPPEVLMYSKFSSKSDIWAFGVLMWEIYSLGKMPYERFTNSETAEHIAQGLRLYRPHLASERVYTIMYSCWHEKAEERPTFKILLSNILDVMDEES

BTK still occupied, percentage of the predose sample: 83%
Structure (SMILES): CC#CC(=O)N1CCC[C@H]1c1nc(-c2ccc(C(=O)Nc3ccccn3)cc2)c2c(N)nccn12 [acalabrutinib]
